tested on: not listed separately; assay: 14-day repeat-dose oral pharmacokinetics in rats; format: in vivo, rat; conditions: 14-day repeat oral doses
Method: (§1) Repeat oral doses of each compound were administered by oral gavage for 14 days to male and female SD rats (n=3). […] Steady state exposures for the final dosing interval on Day 14 were similar to total compound exposure from single-dose PK.
(§2) Repeat doses of each compound were administered once daily as oral suspensions by gavage in 0.5% carboxy methylcellulose for 14 days at 100 mg/kg. Whole blood was collected at 7 time-points for up to 24 hours during the final dosing interval on Day 14. Clinical observations, body weights, and food consumption were recorded throughout the 14 day study. Clinical chemistry and hematologic parameters were assessed, and histopathology was performed on organs after 14 days of exposure to study drug.

SMILES	oral exposure levels, repeat dose, in words
O=Cc1c(O)cccc1OCc1ccccn1 [Comp 2, 2-hydroxy-6-(pyridin-2-ylmethoxy)benzaldehyde]	greatest oral exposure levels observed to date
O=Cc1c(O)cccc1OCc1ncccc1F [Comp 5, 2-((3-fluoropyridin-2-yl)methoxy)-6-hydroxybenzaldehyde]	greatest oral exposure levels observed to date

tested on: not listed separately; assay: ADME properties / oral bioavailability; conditions: in vivo

SMILES	absorption, distribution, metabolism and elimination (ADME) properties
O=Cc1c(O)cccc1OCc1cccnc1 [Comp 1, 2-hydroxy-6-(pyridin-3-ylmethoxy)benzaldehyde]	acceptable
O=Cc1c(O)cccc1OCc1ccccn1 [Comp 2, 2-hydroxy-6-(pyridin-2-ylmethoxy)benzaldehyde]	acceptable
O=Cc1c(O)cccc1OCc1ncccc1F [Comp 5, 2-((3-fluoropyridin-2-yl)methoxy)-6-hydroxybenzaldehyde]	acceptable

tested on: not listed separately; assay: 14-day repeat-dose safety (clinical observations, histopathology) in rats; format: in vivo, rat; conditions: 100 mg/kg oral once daily for 14 days
Method: as §1, §2

SMILES	clinical and histopathologic changes after 14 days of exposure
O=Cc1c(O)cccc1OCc1cccnc1 [Comp 1, 2-hydroxy-6-(pyridin-3-ylmethoxy)benzaldehyde]	No clinical or histopathologic changes
O=Cc1c(O)cccc1OCc1ccccn1 [Comp 2, 2-hydroxy-6-(pyridin-2-ylmethoxy)benzaldehyde]	No clinical or histopathologic changes
O=Cc1c(O)cccc1OCc1ncccc1F [Comp 5, 2-((3-fluoropyridin-2-yl)methoxy)-6-hydroxybenzaldehyde]	No clinical or histopathologic changes
O=Cc1c(O)cccc1OCc1cccc(CO)n1 [VZHE-039, reference compound]	Both clinical and histopathologic changes in the liver, including hepatocyte necrosis

tested on: not listed separately; assay: Single-dose oral pharmacokinetics in rats; format: in vivo, rat; conditions: not given
Method: Single-dose pharmacokinetics (PK) in male Sprague Dawley (SD) rats (n=4) were assessed for each compound, and the maximum or peak whole blood concentration and area under the curve are shown in Table 5.
Single doses of each compound were administered as oral suspensions by gavage in 0.5% carboxy methylcellulose at 100 mg/kg. Whole blood levels were collected for at least 72 hours after dose administration. Bioanalyses were performed with liquid chromatography-tandem mass spectrometry […].

SMILES	oral exposure levels, single dose, in words
O=Cc1c(O)cccc1OCc1cccnc1 [Comp 1, 2-hydroxy-6-(pyridin-3-ylmethoxy)benzaldehyde]	greatest oral exposure levels observed to date
O=Cc1c(O)cccc1OCc1ccccn1 [Comp 2, 2-hydroxy-6-(pyridin-2-ylmethoxy)benzaldehyde]	greatest oral exposure levels observed to date
O=Cc1c(O)cccc1OCc1ncccc1F [Comp 5, 2-((3-fluoropyridin-2-yl)methoxy)-6-hydroxybenzaldehyde]	greatest oral exposure levels observed to date

tested on: RBC sickling; assay: Oxygen-independent sickle inhibition in SS blood suspensions under anoxia (100% nitrogen); format: cell-based, human; conditions: Homo sapiens; 2 mM compound, anoxia, homozygous SCD blood, 4 biological replicates
Method: To establish oxygen-independent sickle inhibition, the incubation chamber was subsequently opened and exposed to room air for 15 minutes to ensure complete re-oxygenation and reversal of the sickled cells to normal round cells. Reversal was confirmed by microscopy. The incubation chamber was then closed, and the assay was repeated with incubation in 100% nitrogen gas for 1 hour (for screening), or up to 2.5 h (for time-course studies), with collection and fixation of blood aliquots at defined intervals. Aliquot samples were again subjected to microscopic morphological analysis of bright field images to identify the proportion of sickled and non-sickled cells, and sickle inhibition calculated.

SMILES	inhibition at 2000 µM
O=Cc1c(O)cccc1OCc1cccnc1 [Comp 1, 2-hydroxy-6-(pyridin-3-ylmethoxy)benzaldehyde]	71.9 ± 16%
O=Cc1c(O)cccc1OCc1ccccn1 [Comp 2, 2-hydroxy-6-(pyridin-2-ylmethoxy)benzaldehyde]	63.2 ± 17.2%
O=Cc1c(O)cccc1OCc1ccncc1 [Comp 3, 2-hydroxy-6-(pyridin-4-ylmethoxy)benzaldehyde]	26.2 ± 8.6%
O=Cc1c(O)cccc1OCc1cncc(F)c1 [Comp 4, 2-((5-fluoropyridin-3-yl)methoxy)-6-hydroxybenzaldehyde]	69.6 ± 13.4%
O=Cc1c(O)cccc1OCc1ncccc1F [Comp 5, 2-((3-fluoropyridin-2-yl)methoxy)-6-hydroxybenzaldehyde]	66.5 ± 21.1%
O=Cc1c(O)cccc1OCc1cccnc1F [Comp 6, 2-((2-fluoropyridin-3-yl)methoxy)-6-hydroxybenzaldehyde]	32.6 ± 28.5%
O=Cc1c(O)cccc1OCc1cccnc1Cl [Comp 7, 2-((2-chloropyridin-3-yl)methoxy)-6-hydroxybenzaldehyde]	9.4 ± 10.7%
O=Cc1c(O)cccc1OCc1ncccc1Cl [Comp 8, 2-((3-chloropyridin-2-yl)methoxy)-6-hydroxybenzaldehyde]	18.3 ± 8.4%
O=Cc1c(F)cc(F)cc1OCc1ccccn1 [Comp 9, 2,4-difluoro-6-(pyridin-2-ylmethoxy)benzaldehyde]	0%
O=Cc1c(O)cccc1OCc1cncnc1 [Comp 10, 2-hydroxy-6-(pyrimidin-5-ylmethoxy)benzaldehyde]	75.6 ± 18.5%
O=Cc1c(O)cccc1OCc1ncccn1 [Comp 11, 2-hydroxy-6-(pyrimidin-2-ylmethoxy)benzaldehyde]	45.1 ± 10.8%
O=Cc1c(OCc2cccnc2)ccc(F)c1O [Comp 12, 3-fluoro-2-hydroxy-6-(pyridin-3-ylmethoxy)benzaldehyde]	28.7 ± 6.9%
O=Cc1c(F)cc(F)cc1OCc1ncccc1F [Comp 13, 2,4-difluoro-6-((3-fluoropyridin-2-yl)methoxy)benzaldehyde]	-0.5 ± 2.7%
COc1ccc(OCc2ccccn2)c(C=O)c1 [INN-310, reference compound]	17.9 ± 7%
COc1ccc(OCc2cccc(CO)n2)c(C=O)c1 [TD-7, reference compound]	20.4 ± 2.9%
O=Cc1c(O)cccc1OCc1cccc(CO)n1 [VZHE-039, reference compound]	68.9 ± 17.7%
CC(C)n1nccc1-c1ncccc1COc1cccc(O)c1C=O [Voxelotor, reference compound]	1.5 ± 5.5%

same assay, conditions: anoxia

SMILES	polymer destabilizing effects (sickle inhibition in anoxia), in words
O=Cc1c(O)cccc1OCc1cccnc1 [Comp 1, 2-hydroxy-6-(pyridin-3-ylmethoxy)benzaldehyde]	most potent polymer destabilizers discovered to date
O=Cc1c(O)cccc1OCc1ccccn1 [Comp 2, 2-hydroxy-6-(pyridin-2-ylmethoxy)benzaldehyde]	most potent polymer destabilizers discovered to date
O=Cc1c(F)cc(F)cc1OCc1ccccn1 [Comp 9, 2,4-difluoro-6-(pyridin-2-ylmethoxy)benzaldehyde]	completely negates the polymer destabilization effects
O=Cc1c(OCc2cccnc2)ccc(F)c1O [Comp 12, 3-fluoro-2-hydroxy-6-(pyridin-3-ylmethoxy)benzaldehyde]	significantly reduced the potency of polymer inhibition
O=Cc1c(F)cc(F)cc1OCc1ncccc1F [Comp 13, 2,4-difluoro-6-((3-fluoropyridin-2-yl)methoxy)benzaldehyde]	completely negates the polymer destabilization effects
COc1ccc(OCc2ccccn2)c(C=O)c1 [INN-310, reference compound]	only weak potency in anoxia
O=Cc1c(O)cccc1OCc1ccccc1 [Reference A, 2-(benzyloxy)-6-hydroxybenzaldehyde, reference compound]	potent polymer destabilizing effects
CC(C)n1nccc1-c1ncccc1COc1cccc(O)c1C=O [Voxelotor, reference compound]	did not demonstrate any sickle inhibition in anoxic conditions

same assay, conditions: anoxia time-course, up to 2.5 h

SMILES	polymer destabilizing effects in anoxia time-course experiments, in words
O=Cc1c(O)cccc1OCc1cccnc1 [Comp 1, 2-hydroxy-6-(pyridin-3-ylmethoxy)benzaldehyde]	most potent and sustained polymer destabilizing effects observed to date
O=Cc1c(O)cccc1OCc1ccccn1 [Comp 2, 2-hydroxy-6-(pyridin-2-ylmethoxy)benzaldehyde]	most potent and sustained polymer destabilizing effects observed to date

tested on: RBC sickling; assay: Sickle inhibition in SS blood suspensions under hypoxia (2.5% oxygen); format: cell-based; conditions: Homo sapiens, 2 mM compound, homozygous SCD blood, 4 biological replicates
Method: All compounds (Comp 1-13) and comparator molecules (VZHE-039, PP-14, INN-310, and Voxelotor) were evaluated following established procedures. Blood samples from individual donors with homozygous SCD (obtained with informed consent) were diluted using Hemox buffer solution with the addition of glucose (10 mM) and BSA (0.2%) to adjust hematocrit of the blood suspensions to 20%, which standardizes the procedure to normalize the ratio of RBCs to drug, for assay consistency and reproducibility. Briefly, blood suspensions were incubated under room air in the presence of various concentrations of test compounds (0-2 mM) at 37° ° C. for 1 hour in 96-well round bottom plates. Subsequently, the suspensions were incubated with a hypoxic gas mixture (2.5% Oxygen gas/balance Nitrogen gas) at 37° C. for up to 2 hours prior to fixation with 2% glutaraldehyde solution without exposure to air. The fixated blood aliquots were evaluated by microscopic morphological analysis (image analysis on Image J software) to identify the proportion of sickled and non-sickled RBCs, and sickle inhibition calculated based on the % change from negative control (DMSO).

SMILES	inhibition at 2000 µM
O=Cc1c(O)cccc1OCc1cccnc1 [Comp 1, 2-hydroxy-6-(pyridin-3-ylmethoxy)benzaldehyde]	74.8 ± 15.9%
O=Cc1c(O)cccc1OCc1ccccn1 [Comp 2, 2-hydroxy-6-(pyridin-2-ylmethoxy)benzaldehyde]	72.8 ± 13%
O=Cc1c(O)cccc1OCc1ccncc1 [Comp 3, 2-hydroxy-6-(pyridin-4-ylmethoxy)benzaldehyde]	54.1 ± 14.7%
O=Cc1c(O)cccc1OCc1cncc(F)c1 [Comp 4, 2-((5-fluoropyridin-3-yl)methoxy)-6-hydroxybenzaldehyde]	64.3 ± 24.5%
O=Cc1c(O)cccc1OCc1ncccc1F [Comp 5, 2-((3-fluoropyridin-2-yl)methoxy)-6-hydroxybenzaldehyde]	66.6 ± 9.4%
O=Cc1c(O)cccc1OCc1cccnc1F [Comp 6, 2-((2-fluoropyridin-3-yl)methoxy)-6-hydroxybenzaldehyde]	67.1 ± 5.8%
O=Cc1c(O)cccc1OCc1cccnc1Cl [Comp 7, 2-((2-chloropyridin-3-yl)methoxy)-6-hydroxybenzaldehyde]	36.1 ± 19.7%
O=Cc1c(O)cccc1OCc1ncccc1Cl [Comp 8, 2-((3-chloropyridin-2-yl)methoxy)-6-hydroxybenzaldehyde]	69.7 ± 8%
O=Cc1c(F)cc(F)cc1OCc1ccccn1 [Comp 9, 2,4-difluoro-6-(pyridin-2-ylmethoxy)benzaldehyde]	68.1 ± 29.8%
O=Cc1c(O)cccc1OCc1cncnc1 [Comp 10, 2-hydroxy-6-(pyrimidin-5-ylmethoxy)benzaldehyde]	76.6 ± 10.9%
O=Cc1c(O)cccc1OCc1ncccn1 [Comp 11, 2-hydroxy-6-(pyrimidin-2-ylmethoxy)benzaldehyde]	67.4 ± 18.2%
O=Cc1c(OCc2cccnc2)ccc(F)c1O [Comp 12, 3-fluoro-2-hydroxy-6-(pyridin-3-ylmethoxy)benzaldehyde]	68.6 ± 12%
O=Cc1c(F)cc(F)cc1OCc1ncccc1F [Comp 13, 2,4-difluoro-6-((3-fluoropyridin-2-yl)methoxy)benzaldehyde]	63.6 ± 24.3%
COc1ccc(OCc2ccccn2)c(C=O)c1 [INN-310, reference compound]	69.9 ± 20%
COc1ccc(OCc2cccc(CO)n2)c(C=O)c1 [TD-7, reference compound]	80.6 ± 5.8%
O=Cc1c(O)cccc1OCc1cccc(CO)n1 [VZHE-039, reference compound]	75.3 ± 14.3%
CC(C)n1nccc1-c1ncccc1COc1cccc(O)c1C=O [Voxelotor, reference compound]	79.9 ± 6.2%

biological target: T1, Hb (Homo sapiens, UniProt P69905); assay: Occupancy/dose-dependent p50 shift in human non-sickle blood; format: cell-based; conditions: compared to Voxelotor at equivalent drug-Hb occupancy levels
T1 construct: Hemoglobin modification, studies using non-sickling AA blood; from tissue; host or cells: non-sickling AA blood (red cells)
T1 sequence (P69905 2-142 limits assumed): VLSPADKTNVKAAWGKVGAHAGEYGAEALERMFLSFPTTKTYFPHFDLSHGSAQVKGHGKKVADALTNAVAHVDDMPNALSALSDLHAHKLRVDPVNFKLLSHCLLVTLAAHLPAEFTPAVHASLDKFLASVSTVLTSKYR
T1 sequence (P68871 2-147 partner limits assumed): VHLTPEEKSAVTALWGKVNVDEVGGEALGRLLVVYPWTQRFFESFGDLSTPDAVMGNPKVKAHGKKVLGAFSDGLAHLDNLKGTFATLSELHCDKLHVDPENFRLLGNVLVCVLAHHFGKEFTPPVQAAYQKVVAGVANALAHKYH
Method: Non-sickling human blood was incubated with test compounds at 0.25-2 mM concentrations at 37 °C for 1 hour in 96-well round bottom plates. At conclusion, RBCs were washed once with PBS, followed by lysis with deionized water. Approximately 100 μl aliquots of individual lysates were added to 3 mL of 0.1M potassium phosphate buffer, pH 7.0 in a cuvette and subjected to hemoximetry analysis using a Hemox™ Analyzer (TCS Scientific Corp.) as previously described. Change in p50 values (Δp50) was calculated by subtracting the p50 values of treated samples from the value of the control sample and expressing the difference as a percentage of control p50 values.

SMILES	changes in p50 of Hb in human blood
O=Cc1c(O)cccc1OCc1cccnc1 [Comp 1, 2-hydroxy-6-(pyridin-3-ylmethoxy)benzaldehyde]	relatively weak changes in p50
O=Cc1c(O)cccc1OCc1ccccn1 [Comp 2, 2-hydroxy-6-(pyridin-2-ylmethoxy)benzaldehyde]	relatively weak changes in p50
O=Cc1c(O)cccc1OCc1ncccc1F [Comp 5, 2-((3-fluoropyridin-2-yl)methoxy)-6-hydroxybenzaldehyde]	relatively weak changes in p50

Source: patent US12065408B2, “Benzaldehyde compounds with direct polymer destabilizing effects to treat sickle cell disease” (VIRGINIA COMMONWEALTH UNIVERSITY, priority 2022, dated 2024)
